From ChEMBL document CHEMBL4483862, “Open-source discovery of chemical leads for next-generation chemoprotective antimalarials” (2018) come the findings set out here.

In this experiment the test system is Plasmodium berghei. Kind of experiment: Luciferase/luciferin-expressing antifolate-resistant parasites were used to infect a culture of HepG2 cells that were pre-incubated with compounds. Infected hepatocytes emit light due to the luciferase reaction. Assay results are presented as the percent inhibition of light emission compared to control. […]. Format: functional. Conditions: sporozoite; for IC90: read-out: LUCIFERASE INFECTION ASSAY - IC90.

Where [1] appears, read: read-out: LUCIFERASE INFECTION ASSAY - IC50.

For `CC(=O)c1ccc(NC(=O)c2nn(-c3ccccc3)c3c2C2CCC3(C)C2(C)C)cc1` (configuration not stated), the IC90 is greater than 10 µM. Further, where the note is “FFLUC_HILL_SLOPE 16.9, FFLUC_R_SQUARED 0.354, read-out: LUCIFERASE INFECTION ASSAY - IC50”, the IC50 is greater than 10 µM.

As to `COc1cc(C(=O)Nc2ccc(C(=O)NC3CC3)cc2)cc(Cl)c1OC(C)C`, the IC90 is greater than 10 µM. The IC50 (PBLUC_HILL_SLOPE 2.4, PBLUC_R_SQUARED 0.128, read-out: LUCIFERASE INFECTION ASSAY - IC50) worked out at 6.06 µM.

As to `c1ccc(Oc2cccc(-c3ccc4nnc(-c5ccccc5)n4c3)c2)cc1`, the IC90 was greater than 10 µM. Further, under setting [1], the IC50 was greater than 10 µM.

Regarding `CN1/C(=C\C(=O)C[n+]2cccc(Br)c2)C(C)(C)c2ccccc21`, the IC90 is greater than 10 µM. Also, the IC50 (HEPG2TOX_HILL_SLOPE 3.72, HEPG2TOX_R_SQUARED 0.897, PBLUC_HILL_SLOPE 2.59, PBLUC_R_SQUARED 0.674, read-out: LUCIFERASE INFECTION ASSAY - IC50) amounted to 4.52 µM.

Take `c1ccc(-c2nc(-c3ccccc3)c(-c3ccccc3)o2)cc1`: the IC90 was greater than 11.1 µM. The 50% inhibitory concentration (IC50) (FFLUC_HILL_SLOPE 6.72, FFLUC_R_SQUARED 0.191, read-out: LUCIFERASE INFECTION ASSAY - IC50) is greater than 11.1 µM.

For the compound `N=c1c2ccccc2nnn1-c1ccc(C(F)(F)F)cc1`, the IC90 is 7.24 µM. Also, where the note is “PBLUC_HILL_SLOPE 2.81, PBLUC_R_SQUARED 0.81, read-out: LUCIFERASE INFECTION ASSAY - IC50”, the IC50 is 3.32 µM.

Turning to `CC(C)c1nc2cc(NC(=O)CSc3nnnn3C3CC3)ccc2o1`, the IC90 was greater than 10 µM. Moreover, the IC50 (PBLUC_HILL_SLOPE 2.34, PBLUC_R_SQUARED 0.391, read-out: LUCIFERASE INFECTION ASSAY - IC50) was 3.99 µM.

For `COc1ccc(C(=O)c2cc(C#N)c(N)n3c2nc2ccccc23)cc1`, the IC90 stood at 3.53 µM. Moreover, the IC50 (HEPG2TOX_HILL_SLOPE 1.32, HEPG2TOX_R_SQUARED 0.922, PBLUC_HILL_SLOPE 2.77, PBLUC_R_SQUARED 0.822, read-out: LUCIFERASE INFECTION ASSAY - IC50) amounted to 1.6 µM.

Take `COC(=O)c1ccccc1SCC(C)=O`: the IC90 was greater than 14.7 µM. Besides, the IC50 (FFLUC_HILL_SLOPE 5.95, FFLUC_R_SQUARED 0.0707, PBLUC_HILL_SLOPE 4.71, PBLUC_R_SQUARED 0.0859, read-out: LUCIFERASE INFECTION ASSAY - IC50) worked out at 14 µM.

As to `O=C(Nc1nonc1-c1ccc(F)cc1)c1ccc(Br)cc1`, the IC90 is 3.92 µM. The IC50 (HEPG2TOX_HILL_SLOPE 9.79, HEPG2TOX_R_SQUARED 0.939, PBLUC_HILL_SLOPE 11.2, PBLUC_R_SQUARED 0.415, read-out: LUCIFERASE INFECTION ASSAY - IC50) is 3.22 µM.

Take `O=C(CC12CC3CC(CC(C3)C1)C2)NCC(=O)Nc1ccc2[nH]c(=O)[nH]c2c1`: the IC90 is greater than 10 µM. Moreover, the IC50 under setting [1] is greater than 10 µM.

Consider `Cc1cc(C(=O)C(C)OC(=O)C2=COCCO2)c(C)n1-c1ccc(Cl)cc1` (configuration not stated), for which the IC90 is greater than 10 µM. Further, the half-inhibitory concentration (IC50) under setting [1] was found to be 6.48 µM.

With `CCN(CC)C(=O)COC(=O)c1ccc2c(c1)C(=O)N(CCC(C)C)C2=O`, the IC90 is greater than 10 µM. Further, the IC50 under setting [1] is greater than 10 µM.

Turning to `Cc1nn(-c2ccccc2)nc1C(=O)NCc1ccccc1-c1ccc(CN(C)C)cc1`, the IC90 was 5.83 µM. Also, the IC50 under setting [1] was 3.7 µM.

Regarding `CCn1nc(C)c([N+](=O)[O-])c1C(=O)Sc1cccc(Br)c1`, the 90% effect concentration (IC90) was greater than 8.91 µM. Under setting [1], the concentration for half-maximal inhibition (IC50) was greater than 8.91 µM.

With `C=C(c1ccccc1)[n+]1ccc(C(=O)c2ccccc2)cc1`, the IC90 was greater than 9.01 µM. Further, where the note is “HEPG2TOX_HILL_SLOPE 15.5, HEPG2TOX_R_SQUARED 0.47, PBLUC_HILL_SLOPE 4.11, PBLUC_R_SQUARED 0.394, read-out: LUCIFERASE INFECTION ASSAY - IC50”, the IC50 worked out at 5.35 µM.

For the compound `N#C/C(=C\Nc1ccc(OC(F)(F)F)cc1)S(=O)(=O)c1ccc(Cl)cc1`, the IC90 was greater than 8.19 µM. In addition, the IC50 under setting [1] was greater than 8.19 µM.

Take `CSc1c(C#N)c(-c2cc(C(C)(C)C)oc2C)nn1-c1ccc(I)cc1`: the IC90 was greater than 6.91 µM. Where the note is “FFLUC_HILL_SLOPE 0.81, FFLUC_R_SQUARED 0.431, read-out: LUCIFERASE INFECTION ASSAY - IC50”, the concentration for half-maximal inhibition (IC50) is greater than 6.91 µM.

Turning to `COC(=O)c1cc(OC)c(OC)cc1NC(=O)c1ccc(-c2cccc(Br)c2)nc1C`, the IC90 was greater than 10 µM. The half-maximal inhibitory concentration (IC50) under setting [1] is greater than 10 µM.

Take `CCn1nc(C(=O)NCc2ccc(OC)cc2)c2c1CCN(C(=O)C1Cc3ccccc3O1)C2` (configuration not stated): the IC90 stood at 6.24 µM. Besides, the IC50 (HEPG2TOX_HILL_SLOPE 2.42, HEPG2TOX_R_SQUARED 0.906, PBLUC_HILL_SLOPE 2.97, PBLUC_R_SQUARED 0.096, read-out: LUCIFERASE INFECTION ASSAY - IC50) came to 2.98 µM.

With `COc1cc(/C=c2\s/c(=C(/C#N)C(=O)Nc3cccc(S(=O)(=O)N4CCCCC4)c3)n(CCc3ccccc3)c2=O)ccc1OC(F)F`, the IC90 is greater than 10 µM. In addition, the IC50 under setting [1] is greater than 10 µM.

As to `CC(C)(C)OC(=O)Nc1ccc(C(=O)NCC2(c3ccccc3)CC2)cc1`, the IC90 was greater than 10 µM. Under setting [1], the IC50 was greater than 10 µM.

For `O=C(c1ccco1)N(Cc1nccs1)c1ccc(-c2ccccc2)cc1`, the IC90 was greater than 9.16 µM. Besides, the concentration for half-maximal inhibition (IC50) under setting [1] is greater than 9.16 µM.

For the compound `COc1ccc(Cl)cc1C(=O)NNC(=O)c1oc2ccccc2c1CSC1CCCCC1`, the IC90 is greater than 10 µM. For the same compound, the IC50 (FFLUC_HILL_SLOPE 11.7, FFLUC_R_SQUARED 0.493, read-out: LUCIFERASE INFECTION ASSAY - IC50) was greater than 10 µM.

Consider `CN(Cc1cc(=O)n2c([nH]c3ccccc32)c1C#N)Cc1c(F)cccc1Cl`, for which the concentration for an effect of 90% (IC90) was 6.11 µM. The IC50 (HEPG2TOX_HILL_SLOPE 0.22, HEPG2TOX_R_SQUARED 0.757, PBLUC_HILL_SLOPE 1.9, PBLUC_R_SQUARED 0.518, read-out: LUCIFERASE INFECTION ASSAY - IC50) came out at 1.92 µM.

As for `CCSc1nccc(-c2ccc3c(c2)CCC(C)(C)O3)n1`, the 90% effect concentration (IC90) was found to be 3.37 µM. The half-maximal inhibitory concentration (IC50) (PBLUC_HILL_SLOPE 1.33, PBLUC_R_SQUARED 0.696, read-out: LUCIFERASE INFECTION ASSAY - IC50) was 0.648 µM.

Consider `CNc1nc2cnc(Nc3cccc(OC(F)(F)F)c3)cc2n1-c1cc(OC)c(OC)c(OC)c1`, for which the IC90 is greater than 10 µM. Also, the IC50 (PBLUC_HILL_SLOPE 2.6, PBLUC_R_SQUARED 0.253, read-out: LUCIFERASE INFECTION ASSAY - IC50) turned out to be 6.55 µM.

Turning to `COc1ccc(/C=C2\CCCc3c2nc2ncnn2c3-c2ccc(OC)cc2)cc1`, the IC90 was greater than 10 µM. The IC50 under setting [1] was greater than 10 µM.

For the compound `Nc1c(C(=O)CN2CCN(C(c3ccc(F)cc3)c3ccc(F)cc3)CC2)c(=O)[nH]c(=O)n1Cc1ccccc1`, the IC90 was greater than 10 µM. For the same compound, under setting [1], the IC50 was greater than 10 µM.

Take `C=CCOc1ccccc1C(=O)Nc1nc2c(s1)CN(C(=O)OC(C)(C)C)CC2`: the IC90 turned out to be 4.73 µM. Further, the IC50 (HEPG2TOX_HILL_SLOPE 3.68, HEPG2TOX_R_SQUARED 0.942, PBLUC_HILL_SLOPE 10.6, PBLUC_R_SQUARED 0.381, read-out: LUCIFERASE INFECTION ASSAY - IC50) was 3.84 µM.

In the case of `Cc1nn(-c2ccccc2)c(C)c1CC(=O)Nc1ccc2c(c1)OC(F)(F)O2`, the IC90 is greater than 10 µM. The IC50 under setting [1] is greater than 10 µM.

Take `CC(=O)NCCCc1ccc(C(=O)Cn2cc(C(F)(F)F)ccc2=O)cc1`: the IC90 is greater than 10 µM. Also, the IC50 under setting [1] is greater than 10 µM.

In the case of `Cc1cc(C)cc(Nc2nc(=O)c(Cc3ccc(Cl)cc3)n[nH]2)c1`, the IC90 was 8.45 µM. Besides, the IC50 (FFLUC_HILL_SLOPE 1.04, FFLUC_R_SQUARED 0.238, PBLUC_HILL_SLOPE 2.61, PBLUC_R_SQUARED 0.421, read-out: LUCIFERASE INFECTION ASSAY - IC50) was found to be 3.64 µM.

As to `CN(c1ccccc1)c1cc(C(=O)Nc2ccccc2)ncn1`, the IC90 is 0.681 µM. In addition, the IC50 (FFLUC_HILL_SLOPE 2.25, FFLUC_R_SQUARED 0.879, PBLUC_HILL_SLOPE 0.724, PBLUC_R_SQUARED 0.686, read-out: LUCIFERASE INFECTION ASSAY - IC50) was determined as 0.0327 µM.

With `COc1cccc(/C=C/C(=O)Nc2nc3c(s2)CN(C(=O)OC(C)(C)C)CC3)c1`, the concentration for an effect of 90% (IC90) amounted to 0.475 µM. For the same compound, the IC50 under setting [1] was 0.387 µM.

For `CC(C)(C)c1ccc(C2NCC(c3ccc(Cl)cc3Cl)c3c2[nH]c2ccccc32)cc1` (configuration not stated), the IC90 was 4.09 µM. The IC50 (FFLUC_HILL_SLOPE 4.79, FFLUC_R_SQUARED 0.608, HEPG2TOX_HILL_SLOPE 0.722, HEPG2TOX_R_SQUARED 0.602, PBLUC_HILL_SLOPE 10.9, PBLUC_R_SQUARED 0.683, read-out: LUCIFERASE INFECTION ASSAY - IC50) came to 3.34 µM.

On to `CCC1CCc2sc(C(=O)NNC(=O)c3cnccn3)cc2C1` (configuration not stated), for which the IC90 is greater than 10 µM. The IC50 (HEPG2TOX_HILL_SLOPE 2.38, HEPG2TOX_R_SQUARED 0.712, PBLUC_HILL_SLOPE 3.73, PBLUC_R_SQUARED 0.532, read-out: LUCIFERASE INFECTION ASSAY - IC50) was 6.76 µM.

With `COc1cc(/C=C/C(=O)OCC(=O)Nc2cc(Cl)cc(Cl)c2)cc(OC)c1OC`, the IC90 is greater than 10 µM. Also, the IC50 under setting [1] is greater than 10 µM.

As to `CC1(C)CC2CC(C)(CN2C(=O)CSc2nnc(-c3cc(-c4cccs4)nc4ccccc34)o2)C1` (configuration not stated), the IC90 was greater than 10 µM. Further, the IC50 (PBLUC_HILL_SLOPE 1.06, PBLUC_R_SQUARED 0.333, read-out: LUCIFERASE INFECTION ASSAY - IC50) is greater than 10 µM.

Turning to `CSc1ccc(-c2cn3c(-c4ccc(CO)cc4)cnc3cn2)cc1`, the concentration for an effect of 90% (IC90) is greater than 9.5 µM. Further, under setting [1], the IC50 was greater than 9.5 µM.

In the case of `O=C(Nc1ccccc1)N1CCc2sccc2C1c1ccc(C(F)(F)F)cc1` (configuration not stated), the concentration for an effect of 90% (IC90) was 5.93 µM. Besides, the IC50 (PBLUC_HILL_SLOPE 6.19, PBLUC_R_SQUARED 0.577, read-out: LUCIFERASE INFECTION ASSAY - IC50) was 4.16 µM.
